Literature values as cited in patent publication US20190151234A1, “STABLE LIQUID PHARMACEUTICAL FORMULATIONS OF BENDAMUSTINE” (priority 2016, published 2019).
Read-outs that look alike come from different tables or passages of the source.

Conditions: for time stable: 0.25 mg/ml in 0.9% sodium chloride, Pharmazie 1994

## Cl.Cn1c(CCCC(=O)O)nc2cc(N(CCCl)CCCl)ccc21 [Bendamustine HCl, Bendamustine hydrochloride]
At 4° C.
  time stable: 5 days
At 23° C.
  time stable: 0.38 days
Aqueous solutions, per U.S. Pat. Nos. 8,609,707, 9,265,831
  stability in aqueous solutions: limited to few hours
